Data: PMC5917010, “Structural basis for GPR40 allosteric agonism and incretin stimulation” (Nature Communications, 2018)

Key:
PPAR = PPAR binding and functional assays at multiple concentrations; settings: all PPAR binding and functional assays
hRORalpha = hRORalpha (Homo sapiens, UniProt P35398); assay: hRORalpha binding
GPR40 Y114F = GPR40 Y114F (Homo sapiens, UniProt O14842, Y114F); assay: cAMP accumulation assay, Y114F mutant
Description: (§1) HEK293 cells transiently transfected with Promega’s cAMP response element (CRE/luc2P) and a GPR40 construct were plated (40K cells/well) into 96-well microtiter plates using Dulbecco’s Modified Eagle’s Medium (DMEM) supplemented with 10% FBS, 20 mM HEPES, pH 7.4, 100 U/mL Penicillin, 100 µg/mL Streptomycin, and 800 µg/mL Geneticin. Test compounds were serially diluted three-fold in 100% DMSO and immediately diluted in media. […] EC50 values were calculated using a four-parameter logistic curve fitting equation.

hD1 = hD1 (Homo sapiens, UniProt P21728); assay: hD1 cAMP; assay type: cell-based; settings: read-out: hD1 cAMP Rel EC50
hRORbeta = hRORbeta (Homo sapiens, UniProt Q92753); assay: hRORbeta binding
hRXRalpha = hRXRalpha (Homo sapiens, UniProt P19793); assay: hRXRalpha binding
hGLUCR = hGLUCR (Homo sapiens, UniProt P47871); assay: hGLUCR binding
GPR40 L112A = GPR40 L112A (Homo sapiens, UniProt O14842, L112A); assay: cAMP accumulation assay, L112A mutant
Description: as §1

hNav1.7 = hNav1.7 (Homo sapiens, UniProt Q15858); assay: hNav1.7 binding; settings: read-out: hNav1.7 binding Rel IC50
hERalpha = hERalpha (Homo sapiens, UniProt P03372); assay: hERalpha binding
WT GPR40 = WT GPR40 (Homo sapiens, UniProt O14842); assay: cAMP accumulation assay (CRE/luc2P), wild type GPR40
Description: as §1

hM1 = hM1 (Homo sapiens, UniProt P11229); assay: hM1 binding; settings: read-out: hM1 binding Rel IC50
human GPR40 (A1 site) = biological target: T1, human GPR40 (A1 site) (Homo sapiens, UniProt O14842); assay: A1 site radioligand binding with [3H]-TAK-875
T1 construct: full length recombinant human GPR40 (GPR40) cDNA; expressed in transfected cells; host or cells: HEK 293, stably transfected; crude cell surface membranes
Description: Crude cell surface membranes were prepared from human embryonic kidney 293 (HEK 293) cells stably transfected (for the wild type) or transiently transfected (for the mutants and corresponding wild type) with full length recombinant human GPR40 (GPR40) cDNA, using differential centrifugation methods.
A1 Site Binding. 10 µL of compound diluted in 100% DMSO and 90 µL of Assay Buffer (50 mM Tris-HCl, pH 7.5, 5 mM CaCl2, 5 mM MgCl2, 0.1% w/v fatty acid-free BSA) were added to a deep 96-well polypropylene assay plate (Beckman Coulter).
Assays were terminated by filtration through GF/C glass fiber filtermats (Perkin Elmer) presoaked in 50 mM Tris–HCl, pH 7.5, using a Mach III cell harvester (TomTec). Filtermats were washed two times with 5 mL of ice-cold 50 mM Tris–HCl, pH 7.5 buffer, dried 1 h in a convection oven at 60 °C and embedded with Meltilex A solid scintillant (Perkin Elmer). Radioactivity was determined as counts per min (cpm) using a Trilux Microbeta plate scintillation counter (Perkin Elmer).

[1] = Human hepatocyte clearance; assay type: in vitro ADME; settings: hepatocytes
human GPR40 [2] = biological target: T2, human GPR40 (Homo sapiens, UniProt O14842); assay: Human GPR40 Calcium (Supplementary Table 1); assay type: cell-based
T2 construct: HEK293 cells stably overexpressing full length human GPR40; expressed in transfected cells

[3] = Mouse hepatocyte clearance; assay type: in vitro ADME; settings: hepatocytes
GPR40 S123A = GPR40 S123A (Homo sapiens, UniProt O14842, S123A); assay: cAMP accumulation assay, S123A mutant
Description: as §1

human GPR40 [4] = biological target: T2, human GPR40; assay: Human GPR40 b-arrestin; assay type: cell-based
GPR120 KO mice = assay: OGTT in GPR120 KO mice; assay type: in vivo, mouse; settings: 5 mg/kg
Description: Eight to thirteen week old male C57BL/6 or KO mice were used. The day before the study, at 1600 hours, animals were transferred into clean cages and food was removed. The following morning (~0800 hours), mice were randomized by block randomization to treatment groups (N = 5–7 per group) so each group had similar mean and standard deviation of body weight and blood glucose. […] Animals were dosed with vehicle (0.5% MC/0.25% Tween-80) or the test article by oral gavage. Group allocations were not blinded from the experimenters who collected the data. After 60 min compound treatment animals were then given an oral gavage of glucose (2 g/kg). At 0, 15, 30, 60, and 120 min post oral glucose, two glucose readings via glucometers were obtained. The average of two glucose readings was reported at each time point. Data were expressed as mean±standard error (s.e.m.). Blood glucose values were analyzed using ANOVA with repeated measures. Cook’s distance was also calculated from linear regression. All animals were included in the analysis with their individual averaged Cook’s distance < 1. Dunnett’s comparison was performed at each time point by R program. Significance is denoted at p < 0.05.

GPR40 L112F = GPR40 L112F (Homo sapiens, UniProt O14842, L112F); assay: cAMP accumulation assay, L112F mutant
Description: as §1

hCDK1 = hCDK1 (Homo sapiens, UniProt P06493); assay: hCDK1 binding
hCDK2 = hCDK2 (Homo sapiens, UniProt P24941); assay: hCDK2 binding

T1 sequence (O14842 whole entry): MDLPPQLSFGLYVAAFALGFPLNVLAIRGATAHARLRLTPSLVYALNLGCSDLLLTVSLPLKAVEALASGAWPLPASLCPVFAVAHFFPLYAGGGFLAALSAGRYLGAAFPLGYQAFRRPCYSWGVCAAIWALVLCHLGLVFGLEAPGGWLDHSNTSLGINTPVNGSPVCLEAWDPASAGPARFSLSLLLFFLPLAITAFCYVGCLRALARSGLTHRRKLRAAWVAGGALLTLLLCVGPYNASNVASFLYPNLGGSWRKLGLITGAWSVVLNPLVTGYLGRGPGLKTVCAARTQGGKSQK
T2 sequence (O14842 whole entry): as above
Chain of WT GPR40 (O14842 whole entry): as above
Chain of GPR40 L112F (O14842 whole entry L112F): as the sequence (O14842 whole entry) above, with L112F counted along it
Chain of hNav1.7 (Q15858 whole entry): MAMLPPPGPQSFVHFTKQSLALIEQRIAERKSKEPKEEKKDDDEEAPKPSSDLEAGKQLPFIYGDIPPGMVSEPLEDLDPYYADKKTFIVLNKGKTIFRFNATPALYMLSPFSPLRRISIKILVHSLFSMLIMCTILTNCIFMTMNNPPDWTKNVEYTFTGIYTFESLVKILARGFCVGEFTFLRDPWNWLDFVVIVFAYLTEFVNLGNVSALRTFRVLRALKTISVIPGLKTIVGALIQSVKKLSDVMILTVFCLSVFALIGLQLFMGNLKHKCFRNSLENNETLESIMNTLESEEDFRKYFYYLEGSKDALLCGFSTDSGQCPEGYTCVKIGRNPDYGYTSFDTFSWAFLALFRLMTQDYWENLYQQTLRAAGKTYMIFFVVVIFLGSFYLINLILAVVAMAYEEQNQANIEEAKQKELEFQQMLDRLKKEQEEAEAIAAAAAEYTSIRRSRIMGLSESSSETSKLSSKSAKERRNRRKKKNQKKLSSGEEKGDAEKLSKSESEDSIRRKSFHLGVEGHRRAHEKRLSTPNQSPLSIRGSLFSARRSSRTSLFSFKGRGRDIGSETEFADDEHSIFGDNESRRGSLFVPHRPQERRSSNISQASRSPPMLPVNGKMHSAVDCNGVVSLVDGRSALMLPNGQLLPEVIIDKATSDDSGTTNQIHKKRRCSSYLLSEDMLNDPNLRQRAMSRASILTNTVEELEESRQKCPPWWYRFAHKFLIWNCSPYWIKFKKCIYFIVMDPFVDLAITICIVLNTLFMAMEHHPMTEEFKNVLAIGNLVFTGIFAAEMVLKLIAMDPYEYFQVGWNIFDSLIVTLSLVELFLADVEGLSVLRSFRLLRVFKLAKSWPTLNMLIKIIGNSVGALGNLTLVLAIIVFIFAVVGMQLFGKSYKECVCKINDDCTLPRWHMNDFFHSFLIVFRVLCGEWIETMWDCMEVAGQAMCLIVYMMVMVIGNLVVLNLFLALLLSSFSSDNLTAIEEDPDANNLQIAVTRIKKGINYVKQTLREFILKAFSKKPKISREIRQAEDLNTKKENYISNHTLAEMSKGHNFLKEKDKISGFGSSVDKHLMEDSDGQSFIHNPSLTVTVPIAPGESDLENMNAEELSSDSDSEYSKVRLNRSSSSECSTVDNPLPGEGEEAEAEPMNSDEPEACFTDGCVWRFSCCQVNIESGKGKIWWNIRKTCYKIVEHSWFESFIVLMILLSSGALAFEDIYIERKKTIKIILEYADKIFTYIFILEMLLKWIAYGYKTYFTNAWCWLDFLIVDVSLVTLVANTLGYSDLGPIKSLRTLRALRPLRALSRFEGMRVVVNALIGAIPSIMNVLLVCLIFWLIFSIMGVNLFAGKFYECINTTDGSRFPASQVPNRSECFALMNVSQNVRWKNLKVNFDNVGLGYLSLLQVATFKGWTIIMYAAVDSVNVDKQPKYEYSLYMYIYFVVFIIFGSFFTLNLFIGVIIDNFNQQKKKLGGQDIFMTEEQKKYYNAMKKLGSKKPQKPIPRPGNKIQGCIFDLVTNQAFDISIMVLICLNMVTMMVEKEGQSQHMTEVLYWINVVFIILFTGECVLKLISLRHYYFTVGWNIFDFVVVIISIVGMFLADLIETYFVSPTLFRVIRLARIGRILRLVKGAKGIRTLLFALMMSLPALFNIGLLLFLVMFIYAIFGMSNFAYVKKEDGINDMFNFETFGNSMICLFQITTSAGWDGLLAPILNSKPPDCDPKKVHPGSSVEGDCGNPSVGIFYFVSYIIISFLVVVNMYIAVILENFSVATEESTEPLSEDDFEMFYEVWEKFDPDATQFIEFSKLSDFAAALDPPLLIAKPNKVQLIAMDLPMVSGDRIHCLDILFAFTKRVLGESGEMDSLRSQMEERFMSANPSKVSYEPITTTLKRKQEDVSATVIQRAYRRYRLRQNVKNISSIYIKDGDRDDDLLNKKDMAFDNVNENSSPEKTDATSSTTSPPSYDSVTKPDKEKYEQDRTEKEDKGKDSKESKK
Chain of hM1 (P11229 whole entry): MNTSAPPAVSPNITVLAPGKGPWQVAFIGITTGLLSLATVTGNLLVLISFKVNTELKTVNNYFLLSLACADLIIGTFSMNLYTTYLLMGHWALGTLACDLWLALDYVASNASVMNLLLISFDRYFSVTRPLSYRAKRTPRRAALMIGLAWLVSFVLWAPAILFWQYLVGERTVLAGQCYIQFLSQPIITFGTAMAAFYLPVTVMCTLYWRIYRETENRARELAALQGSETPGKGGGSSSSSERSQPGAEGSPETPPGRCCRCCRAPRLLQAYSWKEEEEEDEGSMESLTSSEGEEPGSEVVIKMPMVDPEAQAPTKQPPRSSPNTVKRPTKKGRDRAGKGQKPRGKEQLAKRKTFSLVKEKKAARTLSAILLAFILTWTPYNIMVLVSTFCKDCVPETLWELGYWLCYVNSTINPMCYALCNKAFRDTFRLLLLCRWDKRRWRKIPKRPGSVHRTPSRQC
Chain of hRORalpha (P35398 whole entry): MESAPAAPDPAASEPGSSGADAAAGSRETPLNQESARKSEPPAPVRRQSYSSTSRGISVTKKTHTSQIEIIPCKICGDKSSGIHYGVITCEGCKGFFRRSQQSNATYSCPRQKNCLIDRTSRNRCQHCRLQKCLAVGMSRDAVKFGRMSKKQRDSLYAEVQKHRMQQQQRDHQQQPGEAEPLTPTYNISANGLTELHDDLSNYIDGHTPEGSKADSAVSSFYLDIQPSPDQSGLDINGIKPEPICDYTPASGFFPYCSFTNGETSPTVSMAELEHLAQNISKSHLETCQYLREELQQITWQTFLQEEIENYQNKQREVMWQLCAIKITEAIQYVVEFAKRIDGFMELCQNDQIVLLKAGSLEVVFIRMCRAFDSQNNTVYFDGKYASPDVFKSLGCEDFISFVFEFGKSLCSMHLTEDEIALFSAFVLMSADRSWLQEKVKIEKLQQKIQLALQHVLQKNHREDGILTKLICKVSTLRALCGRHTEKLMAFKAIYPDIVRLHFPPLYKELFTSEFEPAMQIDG
Chain of hGLUCR (P47871 26-477): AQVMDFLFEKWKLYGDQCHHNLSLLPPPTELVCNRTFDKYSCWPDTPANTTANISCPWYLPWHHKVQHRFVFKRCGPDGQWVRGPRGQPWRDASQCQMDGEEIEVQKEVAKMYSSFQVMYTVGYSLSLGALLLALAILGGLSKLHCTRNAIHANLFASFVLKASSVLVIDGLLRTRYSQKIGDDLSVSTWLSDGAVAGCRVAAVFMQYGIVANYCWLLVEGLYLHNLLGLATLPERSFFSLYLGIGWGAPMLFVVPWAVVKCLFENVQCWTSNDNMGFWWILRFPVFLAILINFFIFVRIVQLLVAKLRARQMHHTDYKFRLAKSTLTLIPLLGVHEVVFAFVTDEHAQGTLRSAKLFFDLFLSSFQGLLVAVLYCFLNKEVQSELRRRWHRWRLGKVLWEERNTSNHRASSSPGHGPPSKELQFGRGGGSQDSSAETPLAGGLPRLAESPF
Chain of hERalpha (P03372 whole entry): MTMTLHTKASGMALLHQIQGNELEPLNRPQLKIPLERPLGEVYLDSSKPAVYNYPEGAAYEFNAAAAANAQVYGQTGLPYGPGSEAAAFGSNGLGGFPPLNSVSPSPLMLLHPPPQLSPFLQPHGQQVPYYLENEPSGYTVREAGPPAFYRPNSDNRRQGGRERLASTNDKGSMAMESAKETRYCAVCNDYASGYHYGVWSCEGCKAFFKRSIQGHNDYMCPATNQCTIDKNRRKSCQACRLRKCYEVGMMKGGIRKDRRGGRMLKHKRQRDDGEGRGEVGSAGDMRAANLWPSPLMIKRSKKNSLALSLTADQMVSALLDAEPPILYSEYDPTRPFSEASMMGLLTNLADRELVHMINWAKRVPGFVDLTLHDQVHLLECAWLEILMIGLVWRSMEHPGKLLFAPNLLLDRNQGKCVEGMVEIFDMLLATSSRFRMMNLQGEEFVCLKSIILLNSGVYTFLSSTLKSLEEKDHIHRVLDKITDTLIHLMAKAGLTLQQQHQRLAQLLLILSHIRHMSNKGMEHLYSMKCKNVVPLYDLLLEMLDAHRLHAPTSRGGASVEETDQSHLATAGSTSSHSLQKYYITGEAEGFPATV
Chain of GPR40 S123A (O14842 whole entry S123A): as the sequence (O14842 whole entry) above, with S123A counted along it
Chain of GPR40 L112A (O14842 whole entry L112A): as the sequence (O14842 whole entry) above, with L112A counted along it
Chain of hRXRalpha (P19793 whole entry): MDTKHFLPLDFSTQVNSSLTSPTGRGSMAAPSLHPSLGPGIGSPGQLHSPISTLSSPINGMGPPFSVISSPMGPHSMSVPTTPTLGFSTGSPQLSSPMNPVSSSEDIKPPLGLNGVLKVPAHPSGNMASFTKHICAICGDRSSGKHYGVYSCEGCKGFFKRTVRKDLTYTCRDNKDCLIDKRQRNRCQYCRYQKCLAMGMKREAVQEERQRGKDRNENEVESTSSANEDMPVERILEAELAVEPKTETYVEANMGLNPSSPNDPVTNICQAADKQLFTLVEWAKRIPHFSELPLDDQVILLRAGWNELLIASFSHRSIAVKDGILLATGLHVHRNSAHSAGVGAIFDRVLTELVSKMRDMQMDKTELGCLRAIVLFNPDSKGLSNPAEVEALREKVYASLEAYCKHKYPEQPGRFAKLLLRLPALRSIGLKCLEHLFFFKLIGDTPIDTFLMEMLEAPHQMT
Chain of GPR40 Y114F (O14842 whole entry Y114F): as the sequence (O14842 whole entry) above, with Y114F counted along it

Question: For `COc1ccc(C(=O)N(CC(C)(C)C)c2cccc(C)n2)c(N2CCC(c3cc4ccc([C@@H](CC(=O)O)C5CC5)cc4o3)CC2)c1` [compound 1], which “PPAR binding or functional activities” value (PPAR) is on record?
Answer: lack of significant PPAR binding or functional activities

Question: And the Ki (hRORalpha)?
Answer: > 20 µM

Question: And the EC50 (GPR40 Y114F)?
Answer: 11 µM

Question: What about the EC50 (hD1) of the same molecule?
Answer: > 80 µM

Question: What about the Ki (hRORbeta) of the same molecule?
Answer: > 13 µM

Question: And the Ki (hRXRalpha)?
Answer: > 10 µM

Question: And the Ki (hGLUCR)?
Answer: > 10 µM

Question: And the EC50 (GPR40 L112A)?
Answer: > 30 µM

Question: And the IC50 (hNav1.7)?
Answer: > 30 µM

Question: And the Ki (hERalpha)?
Answer: > 11 µM

Question: And the EC50 (WT GPR40; cAMP accumulation EC50, GPR40-Gαs signaling, stably transfected cells, Fig. 1c, n = 6)?
Answer: ~0.126 µM

Question: What about the EC50 (WT GPR40; cAMP accumulation EC50, WT, Fig. 6c-e, n = 3) of the same molecule?
Answer: 0.21 µM

Question: And the IC50 (hM1)?
Answer: > 10 µM

Question: What about the Ki (human GPR40 (A1 site); Supplementary Table 1) of the same molecule?
Answer: > 5.59 µM

Question: What about the “effect on [3H]-TAK-875 binding” value (human GPR40 (A1 site); addition of unlabeled compound, membranes from stably transfected cells) of the same molecule?
Answer: enhanced binding activity

Question: What about the “affinity modulation factor (α)” value (human GPR40 (A1 site); allosteric modulator titration equation, [3H]-TAK-875 binding, Fig. 1a) of the same molecule?
Answer: 2.4

Question: What about the recovery ([1]; no ABT, read-out: Human Hepatocyte Clearance no ABT % Recovery) of the same molecule?
Answer: 103%

Question: And the hepatocyte CLint ([1]; no ABT, read-out: Human Hepatocyte Clearance no ABT Intrinsic Clearance)?
Answer: 8.8 µL/min/1e6 cells

Question: What about the recovery ([1]; with ABT (concentration not stated), read-out: Human Hepatocyte Clearance ABT % Recovery) of the same molecule?
Answer: 92.8%

Question: What about the hepatocyte CLint ([1]; with ABT, read-out: Human Hepatocyte Clearance ABT Intrinsic Clearance) of the same molecule?
Answer: < 1.8 µL/min/1e6 cells

Question: What about the Emax (human GPR40 [2]) of the same molecule?
Answer: 110%

Question: What about the recovery ([3]; no ABT, read-out: Mouse Hepatocyte Clearance no ABT % Recovery) of the same molecule?
Answer: 103%

Question: And the hepatocyte CLint ([3]; no ABT, read-out: Mouse Hepatocyte Clearance no ABT Intrinsic Clearance)?
Answer: 9.2 µL/min/1e6 cells

Question: And the recovery ([3]; with ABT (concentration not stated), read-out: Mouse Hepatocyte Clearance ABT % Recovery)?
Answer: 92.8%

Question: And the hepatocyte CLint ([3]; with ABT, read-out: Mouse Hepatocyte Clearance ABT Intrinsic Clearance)?
Answer: 12.4 µL/min/1e6 cells

Question: And the EC50 (GPR40 S123A)?
Answer: > 30 µM

Question: And the EC50 (human GPR40 [4])?
Answer: 0.0019 µM

Question: And the Emax (human GPR40 [4])?
Answer: 172%

Question: What about the “glucose excursion in OGTT, GPR120 KO” value (GPR120 KO mice) of the same molecule?
Answer: significant decrease in glucose excursion

Question: And the EC50 (GPR40 L112F)?
Answer: 0.06 µM

Question: And the “improvement in EC50 in L112F mutant over wild type” value (GPR40 L112F; cAMP accumulation, 240 min)?
Answer: 3 fold

Question: And the IC50 (hCDK1)?
Answer: > 20 µM

Question: And the IC50 (hCDK2)?
Answer: > 20 µM
